Measured values taken from patent US9708336B2, “Metallo-beta-lactamase inhibitors” (priority 2014, dated 2017).
Where two headings read alike, the source gives them in different places.

Columns and labels:
VIM-1 = VIM-1 (Pseudomonas aeruginosa (strain ATCC 15692 / DSM 22644 / CIP 104116 / JCM 14847 / LMG 12228 / 1C / PRS 101 / PAO1), UniProt A0A0F7KYQ8); assay: Enzyme activity: determination of IC50, fluorescence assay with CCF2-FA substrate (VIM-1); assay type: biochemical
IMP-1 = IMP-1 (Serratia marcescens, UniProt P52699); assay: biochemical; assay type: biochemical; settings: read-out: IMP-1 IC50
NDM-1 = NDM-1 (Klebsiella pneumoniae, UniProt C7C422); assay: biochemical; assay type: biochemical; settings: read-out: NDM-1 IC50
[1] = test system: Klebsiella pneumoniae expressing VIM-1 (IHMA599644); assay: Antibiotic potentiation activity: synergistic concentration (MITC95) with imipenem, OD600 growth; assay type: cell-based; settings: for Klebsiella pneumoniae expressing VIM-1 (IHMA 599644) MITC95: concentration giving 95% inhibition of bacterial growth; for Klebsiella pneumoniae MITC95: Klebsiella pneumoniae expressing VIM-1 (IHMA599644), 95% growth inhibition
How it was run: (§1)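 Compound activity is tested with and without imipenem, which is present at 4 μg/ml (or 1 μg/ml) in the well. Bacteria in 1.1× CAMHB are incubated 22–24 h at 35 °C; absorbance gives the growth endpoint.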

[2] = test system: Escherichia coli expressing NDM-1 (CLB30005); assay: as above; assay type: cell-based; settings: for Escherichia coli expressing NDM-1 (CLB 30005) MITC95: concentration giving 95% inhibition of bacterial growth; for Escherichia coli MITC95: Escherichia coli expressing NDM-1 (CLB30005), 95% growth inhibition
How it was run: as §1

[3] = test system: Serratia marcescens expressing IMP-1 (CL5741); assay: as above; assay type: cell-based; settings: for Serratia marcescens expressing IMP-1 (CL5741) MITC95: concentration giving 95% inhibition of bacterial growth; for Serratia marcescens MITC95: Serratia marcescens expressing IMP-1 (CL5741), 95% growth inhibition
How it was run: as §1

[4] = fluorescence assay with CCF2-FA substrate, read-out: VIM-1 IC50
[5] = fluorescence assay with CCF2-FA substrate
[6] = VIM-1 enzyme, CCF2-FA fluorescence assay, read-out: VIM-1 IC50
[7] = IMP-1 enzyme, CCF2-FA fluorescence assay
[8] = NDM-1 enzyme, CCF2-FA fluorescence assay

NDM-1, sequence (C7C422 whole entry, looked up, species assumed): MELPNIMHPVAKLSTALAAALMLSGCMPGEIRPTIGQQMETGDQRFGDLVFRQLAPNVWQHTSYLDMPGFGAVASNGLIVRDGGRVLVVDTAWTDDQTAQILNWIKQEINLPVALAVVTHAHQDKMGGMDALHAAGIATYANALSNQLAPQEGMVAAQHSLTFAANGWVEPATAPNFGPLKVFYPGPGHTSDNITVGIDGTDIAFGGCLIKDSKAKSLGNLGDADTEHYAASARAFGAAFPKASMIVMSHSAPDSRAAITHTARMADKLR
IMP-1, sequence (P52699 whole entry, looked up): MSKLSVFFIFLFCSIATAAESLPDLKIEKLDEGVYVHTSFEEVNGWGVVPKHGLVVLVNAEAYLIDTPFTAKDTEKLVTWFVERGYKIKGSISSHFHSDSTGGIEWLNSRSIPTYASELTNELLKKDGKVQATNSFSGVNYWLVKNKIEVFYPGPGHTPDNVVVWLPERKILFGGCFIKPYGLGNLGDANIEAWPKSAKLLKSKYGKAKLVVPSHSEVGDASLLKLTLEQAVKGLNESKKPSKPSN

| SMILES | IC50 (VIM-1; [4]) | IC50 (IMP-1; [5]) | IC50 (NDM-1; [5]) | Klebsiella pneumoniae expressing VIM-1 (IHMA 599644) MITC95 [1] | Escherichia coli expressing NDM-1 (CLB 30005) MITC95 [2] | Serratia marcescens expressing IMP-1 (CL5741) MITC95 [3] | IC50 (VIM-1; [6]) | IC50 (IMP-1; [7]) | IC50 (NDM-1; [8]) | Klebsiella pneumoniae MITC95 [1] | Escherichia coli MITC95 [2] | Serratia marcescens MITC95 [3] | IC50 (VIM-1; VIM-1 IC50, VIM-1 enzyme, CCF2-FA fluorescence assay) | IC50 (VIM-1; VIM-1 IC50, fluorescence assay with CCF2-FA substrate) |
| --- | --- | --- | --- | --- | --- | --- | --- | --- | --- | --- | --- | --- | --- | --- |
| COc1ncc(-c2cccc(S(N)(=O)=O)c2-c2nn[nH]n2)cn1 [Example 91, 3-(2-methoxypyrimidin-5-yl)-2-(2H-tetrazol-5-yl)benzenesulfonamide] | 180 nM | 830 nM | 27.5 nM | 75 µM | 0.7813 µM | 50 µM | – | – | – | – | – | – | – | – |
| NS(=O)(=O)c1cccc(-c2ccc(N3CCCCC3)nc2)c1-c1nn[nH]n1 [Example 322, 3-(6-(piperidin-1-yl)pyridin-3-yl)-2-(2H-tetrazol-5-yl)benzenesulfonamide] | – | – | – | – | – | – | 3650 nM | 321 nM | 36.5 nM | 200 µM | 7.813 µM | 25 µM | – | – |
| NS(=O)(=O)c1cccc(-c2cnn(Cc3ccncc3)c2)c1-c1nn[nH]n1 [Example 100, 3-[1-(pyridin-4-ylmethyl)-1H-pyrazol-4-yl]-2-(2H-tetrazol-5-yl)benzenesulfonamide] | 940 nM | 146 nM | 29.6 nM | >200 µM | 7.031 µM | 14.06 µM | – | – | – | – | – | – | – | – |
| NS(=O)(=O)c1cccc(C#CCN2CCS(=O)(=O)CC2)c1-c1nn[nH]n1 [Example 148, 3-[3-(1,1-dioxidothiomorpholin-4-yl)prop-1-yn-1-yl]-2-(2H-tetrazol-5-yl)benzenesulfonamide] | 3080 nM | 550 nM | 131 nM | >200 µM | 6.25 µM | 50 µM | – | – | – | – | – | – | – | – |
| Cc1ccc(-c2cc(-c3cnn(C)c3)cc(S(N)(=O)=O)c2-c2nn[nH]n2)cc1 [Example 291, 4′-methyl-5-(1-methyl-1H-pyrazol-4-yl)-2-(2H-tetrazol-5-yl)-[1,1′-biphenyl]-3-sulfonamide] | – | – | – | – | – | – | 222 nM | 98.6 nM | 1.47 nM | >200 µM | 3.906 µM | 4.688 µM | – | – |
| COC1CCN(C(=O)c2ccc(-c3cccc(S(N)(=O)=O)c3-c3nn[nH]n3)cc2)CC1 [Example 51, 4′-[(4-methoxypiperidin-1-yl)carbonyl]-2-(2H-tetrazol-5-yl)biphenyl-3-sulfonamide] | 4190 nM | 27.4 nM | 2.74 nM | >200 µM | 9.375 µM | 31.25 µM | – | – | – | – | – | – | – | – |
| N#Cc1ccc(-c2cccc(S(N)(=O)=O)c2-c2nnn[nH]2)cc1 [Example 308, 4′-cyano-2-(1H-tetrazol-5-yl)-[1,1′-biphenyl]-3-sulfonamide] | – | – | – | – | – | – | – | 192 nM | 11.3 nM | 75 µM | 2.344 µM | 9.375 µM | 164 nM | – |
| NS(=O)(=O)c1cccc(-c2ccc3[nH]c(=O)[nH]c3c2)c1-c1nn[nH]n1 [Example 84, 3-(2-oxo-2,3-dihydro-1H-benzimidazol-5-yl)-2-(2H-tetrazol-5-yl)benzenesulfonamide] | 23.2 nM | 708 nM | 3.08 nM | 6.25 µM | 0.7813 µM | 50 µM | – | – | – | – | – | – | – | – |
| COc1ccc(-c2cccc(S(N)(=O)=O)c2-c2nn[nH]n2)cc1 [Example 8, 4′-methoxy-2-(2H-tetrazol-5-yl)biphenyl-3-sulfonamide] | – | 78.2 nM | 3.99 nM | 200 µM | 0.3906 µM | 3.125 µM | – | – | – | – | – | – | – | 79.8 nM |
| NS(=O)(=O)c1cccc(-c2ccc3c(c2)OCCO3)c1-c1nn[nH]n1 [Example 56, 3-(2,3-dihydro-1,4-benzodioxin-6-yl)-2-(2H-tetrazol-5-yl)benzenesulfonamide] | 44 nM | 13.2 nM | 1.83 nM | 200 µM | 2.344 µM | 14.06 µM | – | – | – | – | – | – | – | – |
